Laboratory results: the kinase profiling compilation of Christmann-Franck et al. (2016)

Legend:
Experiment in all cases: Caliper, Mobility shift assay off-chip
[1] = molecular target: PRKCH (human) (UniProt P24723)
[2] = molecular target: MAPK14 (human) (UniProt Q16539)
[3] = molecular target: CHEK1 (human) (UniProt O14757)
[4] = molecular target: CSNK1D (human) (UniProt P48730)
[5] = molecular target: PIM2 (human) (UniProt Q9P1W9)
[6] = system: ABL1 (human), P00519 [Q252H]
[7] = molecular target: PRKCB1 (human) (UniProt P05771)
[8] = molecular target: PRKD3 (human) (UniProt O94806)
PRKD3 (human), sequence (O94806 whole entry, looked up): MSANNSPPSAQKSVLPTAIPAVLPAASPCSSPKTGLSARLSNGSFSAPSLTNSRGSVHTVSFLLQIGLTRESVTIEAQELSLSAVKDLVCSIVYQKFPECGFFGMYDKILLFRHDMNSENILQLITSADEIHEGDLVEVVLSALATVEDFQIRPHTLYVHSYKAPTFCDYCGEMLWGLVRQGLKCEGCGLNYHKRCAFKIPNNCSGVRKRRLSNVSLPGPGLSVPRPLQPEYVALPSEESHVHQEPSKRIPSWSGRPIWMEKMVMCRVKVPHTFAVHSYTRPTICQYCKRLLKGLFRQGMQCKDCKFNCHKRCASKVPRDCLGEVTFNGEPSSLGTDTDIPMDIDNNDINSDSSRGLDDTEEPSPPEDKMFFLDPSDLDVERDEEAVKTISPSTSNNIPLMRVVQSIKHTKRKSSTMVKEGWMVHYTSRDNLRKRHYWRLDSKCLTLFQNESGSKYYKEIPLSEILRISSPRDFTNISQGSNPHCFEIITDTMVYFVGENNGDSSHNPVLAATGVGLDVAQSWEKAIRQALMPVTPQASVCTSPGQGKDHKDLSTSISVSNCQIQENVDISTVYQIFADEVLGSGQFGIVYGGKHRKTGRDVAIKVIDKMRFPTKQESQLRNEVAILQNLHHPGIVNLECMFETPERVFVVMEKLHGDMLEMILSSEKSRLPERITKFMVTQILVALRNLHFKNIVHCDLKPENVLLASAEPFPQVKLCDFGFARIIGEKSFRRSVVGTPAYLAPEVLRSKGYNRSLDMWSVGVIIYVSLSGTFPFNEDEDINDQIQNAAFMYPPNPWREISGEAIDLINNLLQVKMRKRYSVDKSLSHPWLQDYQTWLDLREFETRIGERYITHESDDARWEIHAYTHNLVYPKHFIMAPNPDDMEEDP

[9] = molecular target: HCK (human) (UniProt P08631)
[10] = molecular target: PIM1 (human) (UniProt P11309)
[11] = molecular target: INSR (human) (UniProt P06213)
[12] = molecular target: TSSK1B (human) (UniProt Q9BXA7)
[13] = molecular target: AURKC (human) (UniProt Q9UQB9)
[14] = molecular target: AURKB (human) (UniProt Q96GD4)
[15] = molecular target: LCK (human) (UniProt P06239)
[16] = molecular target: GSK3B (human) (UniProt P49841)
GSK3B (human), sequence (P49841 whole entry, looked up): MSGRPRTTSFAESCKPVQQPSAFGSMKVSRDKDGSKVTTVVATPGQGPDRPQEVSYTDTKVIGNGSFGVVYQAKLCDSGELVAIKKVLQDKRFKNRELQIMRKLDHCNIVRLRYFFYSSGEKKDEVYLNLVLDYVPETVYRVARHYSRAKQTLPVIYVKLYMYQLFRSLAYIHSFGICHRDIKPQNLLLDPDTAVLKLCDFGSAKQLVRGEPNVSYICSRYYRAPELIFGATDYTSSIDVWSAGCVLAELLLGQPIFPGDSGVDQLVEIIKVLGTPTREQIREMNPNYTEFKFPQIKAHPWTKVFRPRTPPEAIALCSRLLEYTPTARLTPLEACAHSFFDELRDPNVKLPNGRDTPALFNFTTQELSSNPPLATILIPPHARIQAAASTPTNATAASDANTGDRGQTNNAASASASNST

[17] = molecular target: ABL2 (human) (UniProt P42684); conditions: compound 0.1 µM
[18] = molecular target: FGFR4 (human) (UniProt P22455)
[19] = molecular target: ROCK2 (human) (UniProt O75116)
[20] = system: FGFR2 (human), P21802 [N549H]
[21] = molecular target: PRKCE (human) (UniProt Q02156)
[22] = molecular target: RAF1 (human) (UniProt P04049)
RAF1 (human), sequence (P04049 whole entry, looked up): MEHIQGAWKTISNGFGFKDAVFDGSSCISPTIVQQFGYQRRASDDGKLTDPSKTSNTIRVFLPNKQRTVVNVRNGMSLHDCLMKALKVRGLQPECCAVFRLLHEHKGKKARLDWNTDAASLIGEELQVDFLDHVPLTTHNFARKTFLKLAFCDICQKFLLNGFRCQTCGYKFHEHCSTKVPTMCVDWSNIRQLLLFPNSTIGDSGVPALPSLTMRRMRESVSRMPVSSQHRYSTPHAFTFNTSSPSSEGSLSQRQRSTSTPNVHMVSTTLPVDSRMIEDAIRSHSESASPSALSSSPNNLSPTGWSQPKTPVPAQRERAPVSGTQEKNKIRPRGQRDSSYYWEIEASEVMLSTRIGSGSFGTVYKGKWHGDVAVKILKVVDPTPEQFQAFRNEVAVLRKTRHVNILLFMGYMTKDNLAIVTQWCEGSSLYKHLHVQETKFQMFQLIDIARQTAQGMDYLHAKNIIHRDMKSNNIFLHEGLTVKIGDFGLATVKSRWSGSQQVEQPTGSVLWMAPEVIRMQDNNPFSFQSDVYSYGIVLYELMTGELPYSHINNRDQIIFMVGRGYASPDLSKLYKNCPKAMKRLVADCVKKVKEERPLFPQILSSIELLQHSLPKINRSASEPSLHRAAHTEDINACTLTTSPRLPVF

[23] = molecular target: KDR (human) (UniProt P35968)
[24] = molecular target: CAMK2B (human) (UniProt Q13554)
[25] = molecular target: MAPK11 (human) (UniProt Q15759)
[26] = molecular target: PRKD1 (human) (UniProt Q15139)
[27] = molecular target: IRAK4 (human) (UniProt Q9NWZ3)
[28] = molecular target: CHEK2 (human) (UniProt O96017)
CHEK2 (human), sequence (O96017 whole entry, looked up): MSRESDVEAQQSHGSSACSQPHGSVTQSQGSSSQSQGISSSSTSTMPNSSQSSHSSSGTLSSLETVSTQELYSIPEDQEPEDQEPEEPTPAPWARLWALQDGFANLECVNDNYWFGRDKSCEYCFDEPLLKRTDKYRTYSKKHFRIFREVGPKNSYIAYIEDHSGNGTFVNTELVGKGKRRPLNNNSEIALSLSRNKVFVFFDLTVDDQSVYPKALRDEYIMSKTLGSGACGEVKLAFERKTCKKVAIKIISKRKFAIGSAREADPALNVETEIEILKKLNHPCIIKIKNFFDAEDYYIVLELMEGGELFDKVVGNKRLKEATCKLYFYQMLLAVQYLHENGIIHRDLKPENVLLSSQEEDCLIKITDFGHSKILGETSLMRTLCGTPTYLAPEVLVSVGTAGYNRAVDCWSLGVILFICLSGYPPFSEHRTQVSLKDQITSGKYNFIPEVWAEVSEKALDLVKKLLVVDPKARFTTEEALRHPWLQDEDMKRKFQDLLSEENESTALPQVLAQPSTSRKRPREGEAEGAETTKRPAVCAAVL

[29] = molecular target: FLT3 (human) (UniProt P36888)
FLT3 (human), sequence (P36888 whole entry, looked up): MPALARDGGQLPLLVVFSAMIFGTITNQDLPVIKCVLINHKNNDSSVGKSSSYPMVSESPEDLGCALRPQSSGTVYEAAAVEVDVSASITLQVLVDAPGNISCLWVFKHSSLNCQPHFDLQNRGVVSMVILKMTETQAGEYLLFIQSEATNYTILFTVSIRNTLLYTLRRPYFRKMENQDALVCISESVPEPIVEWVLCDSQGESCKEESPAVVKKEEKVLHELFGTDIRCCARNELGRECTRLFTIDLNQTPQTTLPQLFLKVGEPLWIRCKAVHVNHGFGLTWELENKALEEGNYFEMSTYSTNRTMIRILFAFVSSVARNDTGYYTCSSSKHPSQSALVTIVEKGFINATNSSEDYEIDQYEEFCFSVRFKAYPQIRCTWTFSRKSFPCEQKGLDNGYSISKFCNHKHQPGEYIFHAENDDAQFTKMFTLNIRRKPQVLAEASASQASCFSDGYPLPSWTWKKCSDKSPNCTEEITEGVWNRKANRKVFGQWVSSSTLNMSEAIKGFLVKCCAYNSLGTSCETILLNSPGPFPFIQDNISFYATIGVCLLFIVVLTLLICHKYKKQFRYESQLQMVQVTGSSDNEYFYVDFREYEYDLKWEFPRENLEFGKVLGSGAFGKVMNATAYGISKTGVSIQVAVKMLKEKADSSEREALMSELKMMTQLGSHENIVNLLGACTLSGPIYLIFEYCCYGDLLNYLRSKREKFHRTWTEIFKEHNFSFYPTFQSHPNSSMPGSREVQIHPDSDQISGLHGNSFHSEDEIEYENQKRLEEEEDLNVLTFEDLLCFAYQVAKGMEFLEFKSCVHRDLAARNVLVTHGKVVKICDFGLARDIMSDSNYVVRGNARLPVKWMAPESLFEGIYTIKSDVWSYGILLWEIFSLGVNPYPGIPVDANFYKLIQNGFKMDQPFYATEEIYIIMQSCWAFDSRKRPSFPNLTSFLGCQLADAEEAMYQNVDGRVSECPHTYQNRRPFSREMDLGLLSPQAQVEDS

[30] = molecular target: IGF1R (human) (UniProt P08069)
[31] = molecular target: TSSK2 (human) (UniProt Q96PF2)
TSSK2 (human), sequence (Q96PF2 whole entry, looked up): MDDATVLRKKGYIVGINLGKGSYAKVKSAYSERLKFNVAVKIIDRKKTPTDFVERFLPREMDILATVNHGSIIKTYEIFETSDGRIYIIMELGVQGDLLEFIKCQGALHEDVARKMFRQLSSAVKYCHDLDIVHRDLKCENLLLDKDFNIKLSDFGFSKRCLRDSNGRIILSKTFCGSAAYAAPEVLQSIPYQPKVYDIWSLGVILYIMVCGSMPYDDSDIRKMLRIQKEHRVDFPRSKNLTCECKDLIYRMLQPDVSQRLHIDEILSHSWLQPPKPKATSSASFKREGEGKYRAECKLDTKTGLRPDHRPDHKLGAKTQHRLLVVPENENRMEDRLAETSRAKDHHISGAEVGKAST

[32] = molecular target: MARK3 (human) (UniProt P27448)
MARK3 (human), sequence (P27448 whole entry, looked up): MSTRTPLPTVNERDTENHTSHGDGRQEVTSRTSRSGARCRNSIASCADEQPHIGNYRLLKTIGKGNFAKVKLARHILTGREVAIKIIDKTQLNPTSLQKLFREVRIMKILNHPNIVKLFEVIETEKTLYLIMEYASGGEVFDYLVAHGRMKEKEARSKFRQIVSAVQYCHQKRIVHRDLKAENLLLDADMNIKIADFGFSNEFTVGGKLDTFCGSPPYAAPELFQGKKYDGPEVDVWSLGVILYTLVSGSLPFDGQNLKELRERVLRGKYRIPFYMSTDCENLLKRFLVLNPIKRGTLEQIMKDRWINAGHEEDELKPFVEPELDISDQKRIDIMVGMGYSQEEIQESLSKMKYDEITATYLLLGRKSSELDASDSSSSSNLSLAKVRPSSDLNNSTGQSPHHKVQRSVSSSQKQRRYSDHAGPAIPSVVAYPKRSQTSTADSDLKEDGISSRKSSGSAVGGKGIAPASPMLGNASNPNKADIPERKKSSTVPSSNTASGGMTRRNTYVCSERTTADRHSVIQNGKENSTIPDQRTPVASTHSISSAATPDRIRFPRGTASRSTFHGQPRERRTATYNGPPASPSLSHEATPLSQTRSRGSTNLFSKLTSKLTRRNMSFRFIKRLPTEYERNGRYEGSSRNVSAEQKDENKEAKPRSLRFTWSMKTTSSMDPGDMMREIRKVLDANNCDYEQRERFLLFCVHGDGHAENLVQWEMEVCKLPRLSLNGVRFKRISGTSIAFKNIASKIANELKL

[33] = molecular target: MAPK13 (human) (UniProt O15264)
[34] = molecular target: DYRK1A (human) (UniProt Q13627)

CSNK1D (human), sequence (P48730 whole entry, looked up): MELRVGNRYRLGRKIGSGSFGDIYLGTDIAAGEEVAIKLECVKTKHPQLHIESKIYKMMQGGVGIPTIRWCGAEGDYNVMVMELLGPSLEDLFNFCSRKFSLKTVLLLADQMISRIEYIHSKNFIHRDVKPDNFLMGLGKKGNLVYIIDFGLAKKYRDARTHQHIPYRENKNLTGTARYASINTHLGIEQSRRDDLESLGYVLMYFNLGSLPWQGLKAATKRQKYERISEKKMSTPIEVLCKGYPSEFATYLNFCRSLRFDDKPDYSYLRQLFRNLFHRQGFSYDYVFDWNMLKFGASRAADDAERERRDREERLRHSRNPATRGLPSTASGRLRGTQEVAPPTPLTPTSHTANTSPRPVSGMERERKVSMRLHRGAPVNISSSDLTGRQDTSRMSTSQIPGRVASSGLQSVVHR

**Q.** For `Cn1cc(-c2cnc3ccc4ccc(CS(=O)(=O)NCC5CCCCN5)cc4c(=O)c3c2)cn1` (stereo not given), which inhibition ([1]; compound 0.1 µM) is on record?
**A.** 3.1%

**Q.** What about the inhibition ([1]; compound 1.0 µM) of the same compound?
**A.** 1.4%

**Q.** What about the inhibition ([2]; compound 0.1 µM) of the same compound?
**A.** 3.3%

**Q.** And the inhibition ([2]; compound 1.0 µM)?
**A.** -2.7%

**Q.** And the inhibition ([3]; compound 0.1 µM)?
**A.** 1.1%

**Q.** What about the inhibition ([3]; compound 1.0 µM) of the same compound?
**A.** 0.4%

**Q.** What about the inhibition ([4]; compound 0.1 µM) of the same compound?
**A.** 20.4%

**Q.** What about the inhibition ([4]; compound 1.0 µM) of the same compound?
**A.** 7.4%

**Q.** And the inhibition ([5]; compound 0.1 µM)?
**A.** 25.2%

**Q.** What about the inhibition ([5]; compound 1.0 µM) of the same compound?
**A.** 16.7%

**Q.** And the inhibition ([6]; compound 0.1 µM)?
**A.** 1.4%

**Q.** And the inhibition ([7]; compound 0.1 µM)?
**A.** -20.8%

**Q.** And the inhibition ([7]; compound 1.0 µM)?
**A.** -18.2%

**Q.** What about the inhibition ([8]; compound 0.1 µM) of the same compound?
**A.** -11.5%

**Q.** What about the inhibition ([8]; compound 1.0 µM) of the same compound?
**A.** -4.4%

**Q.** And the inhibition ([9]; compound 0.1 µM)?
**A.** -2.1%

**Q.** And the inhibition ([10]; compound 0.1 µM)?
**A.** -4.7%

**Q.** And the inhibition ([10]; compound 1.0 µM)?
**A.** -8.3%

**Q.** And the inhibition ([11]; compound 0.1 µM)?
**A.** -128%

**Q.** What about the inhibition ([11]; compound 1.0 µM) of the same compound?
**A.** -2%

**Q.** And the inhibition ([12]; compound 0.1 µM)?
**A.** -2.7%

**Q.** What about the inhibition ([13]; compound 0.1 µM) of the same compound?
**A.** 20.9%

**Q.** What about the inhibition ([14]; compound 0.1 µM) of the same compound?
**A.** 34.7%

**Q.** What about the inhibition ([15]; compound 0.1 µM) of the same compound?
**A.** 18.4%

**Q.** And the inhibition ([15]; compound 1.0 µM)?
**A.** -1.2%

**Q.** What about the inhibition ([16]; compound 1.0 µM) of the same compound?
**A.** 2%

**Q.** What about the inhibition [17] of the same compound?
**A.** 3.3%

**Q.** What about the inhibition ([18]; compound 0.1 µM) of the same compound?
**A.** -8.7%

**Q.** And the inhibition ([19]; compound 0.1 µM)?
**A.** 3.6%

**Q.** What about the inhibition ([19]; compound 1.0 µM) of the same compound?
**A.** -1.6%

**Q.** What about the inhibition ([20]; compound 0.1 µM) of the same compound?
**A.** -2.9%

**Q.** What about the inhibition ([21]; compound 0.1 µM) of the same compound?
**A.** -9.1%

**Q.** What about the inhibition ([21]; compound 1.0 µM) of the same compound?
**A.** -5.1%

**Q.** What about the inhibition ([22]; compound 0.1 µM) of the same compound?
**A.** 5.4%

**Q.** What about the inhibition ([22]; compound 1.0 µM) of the same compound?
**A.** -0.8%

**Q.** And the inhibition ([23]; compound 0.1 µM)?
**A.** -5.2%

**Q.** What about the inhibition ([23]; compound 1.0 µM) of the same compound?
**A.** 41.8%

**Q.** And the inhibition ([24]; compound 0.1 µM)?
**A.** 2.1%

**Q.** What about the inhibition ([25]; compound 0.1 µM) of the same compound?
**A.** -1.4%

**Q.** And the inhibition ([26]; compound 0.1 µM)?
**A.** -8.3%

**Q.** And the inhibition ([26]; compound 1.0 µM)?
**A.** -1.9%

**Q.** What about the inhibition ([27]; compound 0.1 µM) of the same compound?
**A.** 31.2%

**Q.** What about the inhibition ([27]; compound 1.0 µM) of the same compound?
**A.** 40.2%

**Q.** What about the inhibition ([28]; compound 0.1 µM) of the same compound?
**A.** 4.63%

**Q.** And the inhibition ([28]; compound 1.0 µM)?
**A.** -0.5%

**Q.** And the inhibition ([29]; compound 0.1 µM)?
**A.** 11%

**Q.** And the inhibition ([29]; compound 1.0 µM)?
**A.** 36.8%

**Q.** What about the inhibition ([30]; compound 0.1 µM) of the same compound?
**A.** 4.9%

**Q.** And the inhibition ([30]; compound 1.0 µM)?
**A.** -8.3%

**Q.** And the inhibition ([31]; compound 0.1 µM)?
**A.** 0.7%

**Q.** And the inhibition ([32]; compound 0.1 µM)?
**A.** 2%

**Q.** And the inhibition ([32]; compound 1.0 µM)?
**A.** -4.3%

**Q.** And the inhibition ([33]; compound 0.1 µM)?
**A.** -4.9%

**Q.** What about the inhibition ([34]; compound 0.1 µM) of the same compound?
**A.** 2.3%

**Q.** What about the inhibition ([34]; compound 1.0 µM) of the same compound?
**A.** 2.1%

**Q.** `Cn1cc(-c2cnc3ccc4ccc(CS(N)(=O)=O)cc4c(=O)c3c2)cn1` was tested. Which inhibition ([1]; compound 0.1 µM) did it give?
**A.** -6.7%

**Q.** And the inhibition ([1]; compound 1.0 µM)?
**A.** 0.2%

**Q.** And the inhibition ([2]; compound 0.1 µM)?
**A.** -13.9%

**Q.** And the inhibition ([2]; compound 1.0 µM)?
**A.** 6.9%

**Q.** And the inhibition ([3]; compound 0.1 µM)?
**A.** -7.9%

**Q.** What about the inhibition ([3]; compound 1.0 µM) of the same compound?
**A.** 3.1%

**Q.** What about the inhibition ([4]; compound 0.1 µM) of the same compound?
**A.** 7.6%

**Q.** And the inhibition ([4]; compound 1.0 µM)?
**A.** 11.1%

**Q.** And the inhibition ([5]; compound 0.1 µM)?
**A.** 15.4%

**Q.** And the inhibition ([5]; compound 1.0 µM)?
**A.** 16.5%

**Q.** What about the inhibition ([6]; compound 0.1 µM) of the same compound?
**A.** -0.1%

**Q.** And the inhibition ([6]; compound 1.0 µM)?
**A.** 24.9%

**Q.** And the inhibition ([7]; compound 0.1 µM)?
**A.** -9.3%

**Q.** What about the inhibition ([8]; compound 0.1 µM) of the same compound?
**A.** -8.8%

**Q.** And the inhibition ([8]; compound 1.0 µM)?
**A.** -1.8%

**Q.** What about the inhibition ([9]; compound 0.1 µM) of the same compound?
**A.** -59.1%

**Q.** And the inhibition ([9]; compound 1.0 µM)?
**A.** -1.6%

**Q.** And the inhibition ([10]; compound 0.1 µM)?
**A.** -4.1%

**Q.** And the inhibition ([10]; compound 1.0 µM)?
**A.** 3.7%

**Q.** And the inhibition ([11]; compound 0.1 µM)?
**A.** 12%

**Q.** And the inhibition ([11]; compound 1.0 µM)?
**A.** 6.4%

**Q.** What about the inhibition ([12]; compound 0.1 µM) of the same compound?
**A.** -0.9%

**Q.** And the inhibition ([12]; compound 1.0 µM)?
**A.** 1%

**Q.** What about the inhibition ([13]; compound 0.1 µM) of the same compound?
**A.** 27.7%

**Q.** What about the inhibition ([13]; compound 1.0 µM) of the same compound?
**A.** 76.2%

**Q.** What about the inhibition ([14]; compound 0.1 µM) of the same compound?
**A.** 41.7%

**Q.** What about the inhibition ([14]; compound 1.0 µM) of the same compound?
**A.** 75%

**Q.** What about the inhibition ([15]; compound 0.1 µM) of the same compound?
**A.** 2.4%

**Q.** What about the inhibition ([15]; compound 1.0 µM) of the same compound?
**A.** -1.7%

**Q.** What about the inhibition ([16]; compound 0.1 µM) of the same compound?
**A.** -2.7%

**Q.** And the inhibition ([16]; compound 1.0 µM)?
**A.** 9.3%

**Q.** What about the inhibition ([18]; compound 0.1 µM) of the same compound?
**A.** 21.1%

**Q.** And the inhibition ([18]; compound 1.0 µM)?
**A.** 19.6%

**Q.** And the inhibition ([19]; compound 0.1 µM)?
**A.** 3%

**Q.** And the inhibition ([19]; compound 1.0 µM)?
**A.** 2%

**Q.** What about the inhibition ([20]; compound 0.1 µM) of the same compound?
**A.** 15.5%

**Q.** And the inhibition ([20]; compound 1.0 µM)?
**A.** 40.5%

**Q.** And the inhibition ([21]; compound 0.1 µM)?
**A.** -4.6%

**Q.** What about the inhibition ([21]; compound 1.0 µM) of the same compound?
**A.** 5.9%

**Q.** What about the inhibition ([22]; compound 0.1 µM) of the same compound?
**A.** 6.2%

**Q.** And the inhibition ([22]; compound 1.0 µM)?
**A.** -3.8%

**Q.** What about the inhibition ([23]; compound 0.1 µM) of the same compound?
**A.** 32.6%

**Q.** And the inhibition ([23]; compound 1.0 µM)?
**A.** 64%

**Q.** And the inhibition ([24]; compound 0.1 µM)?
**A.** -21.3%

**Q.** And the inhibition ([24]; compound 1.0 µM)?
**A.** -19.3%

**Q.** And the inhibition ([25]; compound 0.1 µM)?
**A.** -1.8%

**Q.** What about the inhibition ([25]; compound 1.0 µM) of the same compound?
**A.** -4.1%

**Q.** What about the inhibition ([26]; compound 0.1 µM) of the same compound?
**A.** -5.2%

**Q.** What about the inhibition ([26]; compound 1.0 µM) of the same compound?
**A.** 0.2%

**Q.** And the inhibition ([27]; compound 0.1 µM)?
**A.** 6%

**Q.** And the inhibition ([27]; compound 1.0 µM)?
**A.** -8.2%

**Q.** And the inhibition ([28]; compound 0.1 µM)?
**A.** -3.5%

**Q.** And the inhibition ([28]; compound 1.0 µM)?
**A.** 0.7%

**Q.** What about the inhibition ([29]; compound 0.1 µM) of the same compound?
**A.** 4.2%

**Q.** What about the inhibition ([29]; compound 1.0 µM) of the same compound?
**A.** 48.8%

**Q.** And the inhibition ([30]; compound 0.1 µM)?
**A.** -3.7%

**Q.** What about the inhibition ([30]; compound 1.0 µM) of the same compound?
**A.** 1.8%

**Q.** What about the inhibition ([31]; compound 0.1 µM) of the same compound?
**A.** -37%

**Q.** What about the inhibition ([31]; compound 1.0 µM) of the same compound?
**A.** 10.5%

**Q.** And the inhibition ([32]; compound 0.1 µM)?
**A.** -2.4%

**Q.** What about the inhibition ([32]; compound 1.0 µM) of the same compound?
**A.** -3.3%

**Q.** What about the inhibition ([33]; compound 0.1 µM) of the same compound?
**A.** -3.2%

**Q.** What about the inhibition ([33]; compound 1.0 µM) of the same compound?
**A.** -9.3%

**Q.** And the inhibition ([34]; compound 0.1 µM)?
**A.** 6.2%

**Q.** What about the inhibition ([34]; compound 1.0 µM) of the same compound?
**A.** 32.9%
